Data published in patent US11946070B2, “Method of reinforcing efficacy of stem cells using ethionamide” (SAMSUNG LIFE PUBLIC WELFARE FOUNDATION, priority 2019, dated 2024).

Experiments:
[1] = tested on: human umbilical cord mesenchymal stem cells; conditions: ethionamide 50 or 100 μM; FIG. 4B
Protocol: (§1) First, a 3 to 4 cm piece of umbilical cord tissue was fragmented, and treated with a collagenase solution (Gibco, USA) for 60 to 90 minutes to digest an extracellular matrix, followed by digestion with 0.25% trypsin (Gibco, USA) for 30 minutes at 37° C. Subsequently, cells were obtained by adding fetal bovine serum (FBS; Biowest, USA) to the resulting product, and then performing centrifugation at 1000×g for 10 minutes, and then cultured using Minimum Essential Media (MEM; Gibco, USA) supplemented with 10% FBS and 50 μg/ml gentamycin (Gibco, USA) at 37° C. in a 5% CO2 atmosphere, and thus mesenchymal stem cells at passage 5 or 6 were used for an experiment.
(§2) 6×10^3 cells/cm 2 of the human umbilical cord mesenchymal stem cells prepared according to the method of Example 1 were seeded in a cell culture container, and simultaneously, ethionamide was treated at a concentration of 50 μM, 100 μM or 150 μM, followed by culturing for 72 hours.
Subsequently, the mesenchymal stem cells were treated with ethionamide by the same method as described above, and mRNA expression levels of antioxidation-related factors, such as HO-1, NQO1, GCLC and GCLM were measured.

[2] = tested on: human umbilical cord mesenchymal stem cells; conditions: ethionamide 50 or 100 μM; FIG. 4A
Protocol: as §1, §2
To verify whether the expression level of a paracrine factor of mesenchymal stem cells is changed by ethionamide treatment, the mesenchymal stem cells were treated with ethionamide at 50 or 100 μM, and then expression levels of a brain-derived neurotrophic factor (BDNF), a vascular endothelial cell growth factor (VEGF), insulin-like growth factor-1 (IGF-1) and a hepatocyte growth factor (HGF), which are known as paracrine factors, were measured.

Structure (SMILES): CCc1cc(C(N)=S)ccn1 [ethionamide, 2-ethylpyridine-4-carbothioamide]
- GCLC mRNA expression level [1]: significantly increases in proportion to the treated concentration of ethionamide
- GCLM mRNA expression level [1]: significantly increases in proportion to the treated concentration of ethionamide
- HO-1 mRNA expression level [1]: significantly increases in proportion to the treated concentration of ethionamide
- NQO1 mRNA expression level [1]: significantly increases in proportion to the treated concentration of ethionamide
- BDNF expression level [2]: increases in proportion to the treated concentration of ethionamide
- HGF expression level [2]: increases in proportion to the treated concentration of ethionamide
- IGF-1 expression level [2]: increases in proportion to the treated concentration of ethionamide
- VEGF expression level [2]: increases in proportion to the treated concentration of ethionamide
